Key:
[1] = system: bicistronic HCV replicon (replicon RNA, GenBank Accession No. AJ242654); assay: HCV Replicon Assay; type: cell-based; conditions: Hepatitis C virus, 72 h, read-out: Replicon IC50

SMILES	IC50 [1] [nM]	melting point [°C]
Cc1c(F)cc2c(C#N)c(-c3ccc(S(=O)(=O)NC(CF)CF)cn3)n(C3CCCC3)c2c1F [compound 509, 6-(3-cyano-1-cyclopentyl-5,7-difluoro-6-methyl-1H-indol-2-yl)-N-(1,3-difluoropropan-2-yl)pyridine-3-sulfonamide]	< 500	199 to 203
C[C@H](NS(=O)(=O)c1ccc(-c2c(C(N)=O)c3cc(F)c(C4CC4)cc3n2C2CCC2)nc1)C(F)(F)F [compound 731, 1-cyclobutyl-6-cyclopropyl-5-fluoro-2-(5-{[(2S)-1,1,1-trifluoropropan-2-yl]sulfamoyl}pyridin-2-yl)-1H-indole-3-carboxamide]	< 500	225 to 227
N#Cc1c(-c2ccc(S(=O)(=O)NC(CF)CF)cn2)n(C2CCCCC2)c2cc(F)ccc12 [compound 234, 6-(3-cyano-1-cyclohexyl-6-fluoro-1H-indol-2-yl)-N-(1,3-difluoropropan-2-yl)pyridine-3-sulfonamide]	< 500	193 to 199
Cc1ccc2c(c1)c(C#N)c(-c1ccc(S(=O)(=O)N[C@@H](C)C3CC3)cn1)n2C1CCCCC1 [compound 606, 6-(3-cyano-1-cyclohexyl-5-methyl-1H-indol-2-yl)-N-[(1S)-1-cyclopropylethyl]pyridine-3-sulfonamide]	< 500	169 to 174
C[C@@H](NS(=O)(=O)c1ccc(-c2c(C#N)c3ccc(CF)cc3n2C2CCC2)nc1)C(F)(F)F [compound 319, 6-[3-cyano-1-cyclobutyl-6-(fluoromethyl)-1H-indol-2-yl]-N-[(2R)-1,1,1-trifluoropropan-2-yl]pyridine-3-sulfonamide]	500 to 2000	200 to 213
Cc1cc2c(cc1F)c(C#N)c(-c1ccc(S(=O)(=O)N[C@@H](C)C(F)(F)F)cn1)n2-c1cccc(F)n1 [compound 815, 6-[3-cyano-5-fluoro-1-(6-fluoropyridin-2-yl)-6-methyl-1H-indol-2-yl]-N-[(2S)-1,1,1-trifluoropropan-2-yl]pyridine-3-sulfonamide]	< 500	210 to 212
Cc1ccc2c(c1)c(C#N)c(-c1ncc(S(=O)(=O)NC(C)C)cn1)n2C(C)C [compound 565, 2-[3-cyano-5-methyl-1-(propan-2-yl)-1H-indol-2-yl]-N-(propan-2-yl)pyrimidine-5-sulfonamide]	< 500	175 to 177
Cc1cc2c(cc1F)c(C(N)=O)c(-c1ccc(S(=O)(=O)NC(C)(C)C)cn1)n2-c1ccccc1 [compound 1116, 2-[5-(tert-butylsulfamoyl)pyridin-2-yl]-5-fluoro-6-methyl-1-phenyl-1H-indole-3-carboxamide]	< 500	241.2 to 242.5
Cc1ccc2c(C#N)c(-c3ncc(S(=O)(=O)NC(C)C)cn3)n(C3CCCC3)c2c1 [compound 74, 2-(3-cyano-1-cyclopentyl-6-methyl-1H-indol-2-yl)-N-(propan-2-yl)pyrimidine-5-sulfonamide]	< 500	213 to 214
Cc1csc(-n2c(-c3ccc(S(=O)(=O)N[C@@H](C)C(F)(F)F)cn3)c(C#N)c3cc(F)c(C)cc32)n1 [compound 1038, 6-[3-cyano-5-fluoro-6-methyl-1-(4-methyl-1,3-thiazol-2-yl)-1H-indol-2-yl]-N-[(2S)-1,1,1-trifluoropropan-2-yl]pyridine-3-sulfonamide]	< 500	206.3 to 211.7
CC(=O)c1cc2c(cc1F)c(C#N)c(-c1ccc(S(=O)(=O)N[C@@H](C)C(F)(F)F)cn1)n2-c1ncccn1 [compound 907, 6-[6-acetyl-3-cyano-5-fluoro-1-(pyrimidin-2-yl)-1H-indol-2-yl]-N-[(2S)-1,1,1-trifluoropropan-2-yl]pyridine-3-sulfonamide]	< 500	220 to 221
N#Cc1c(-c2ccc(S(=O)(=O)NC(CF)CF)cn2)n(C2CCC2)c2cc(Cl)ccc12 [compound 37, 6-(6-chloro-3-cyano-1-cyclobutyl-1H-indol-2-yl)-N-(1,3-difluoropropan-2-yl)pyridine-3-sulfonamide]	< 500	200 to 202
C[C@H](NS(=O)(=O)c1ccc(-c2c(C#N)c3ccc(OC(F)(F)F)cc3n2C2CCCC2)nc1)C1CC1 [compound 320, 6-[3-cyano-1-cyclopentyl-6-(trifluoromethoxy)-1H-indol-2-yl]-N-[(1S)-1-cyclopropylethyl]pyridine-3-sulfonamide]	500 to 2000	133 to 134
N#Cc1c(-c2ccc(S(=O)(=O)NC(CF)CF)cn2)n(C2CCCCC2)c2cc(Cl)ccc12 [compound 89, 6-(6-chloro-3-cyano-1-cyclohexyl-1H-indol-2-yl)-N-(1,3-difluoropropan-2-yl)pyridine-3-sulfonamide]	< 500	203 to 207
Cc1cc2c(cc1O)c(C#N)c(-c1ccc(S(=O)(=O)N[C@H](C)C(F)(F)F)cn1)n2C1CCC1 [compound 807, 6-(3-cyano-1-cyclobutyl-5-hydroxy-6-methyl-1H-indol-2-yl)-N-[(2R)-1,1,1-trifluoropropan-2-yl]pyridine-3-sulfonamide]	< 500	209 to 210
Cc1cc2c(C#N)c(-c3ccc(S(=O)(=O)N[C@@H](C)C(F)(F)F)cn3)n(C3CCC3)c2cc1OC(F)F [compound 660, 6-[3-cyano-1-cyclobutyl-6-(difluoromethoxy)-5-methyl-1H-indol-2-yl]-N-[(2S)-1,1,1-trifluoropropan-2-yl]pyridine-3-sulfonamide]	< 500	168 to 170
N#Cc1c(-c2ncc(S(=O)(=O)NC(CF)CF)cn2)n(CC2CC2)c2ccc(Cl)cc12 [compound 221, 2-[5-chloro-3-cyano-1-(cyclopropylmethyl)-1H-indol-2-yl]-N-(1,3-difluoropropan-2-yl)pyrimidine-5-sulfonamide]	< 500	245 to 250
C[C@@H](NS(=O)(=O)c1ccc(-c2c(C#N)c3cc(F)ccc3n2C2C=CCCC2)nc1)C(F)(F)F (stereo partly drawn) [compound 412, 6-[3-cyano-1-(cyclohex-2-en-1-yl)-5-fluoro-1H-indol-2-yl]-N-[(2R)-1,1,1-trifluoropropan-2-yl]pyridine-3-sulfonamide]	< 500	187 to 188
CCc1cc2c(cc1F)c(C#N)c(-c1ccc(S(=O)(=O)N[C@@H](C)C(F)(F)F)cn1)n2C1CCCC1 [compound 633, 6-(3-cyano-1-cyclopentyl-6-ethyl-5-fluoro-1H-indol-2-yl)-N-[(2S)-1,1,1-trifluoropropan-2-yl]pyridine-3-sulfonamide]	< 500	201 to 202
CC(C)NS(=O)(=O)c1cnc(-c2c(C#N)c3cc(F)ccc3n2C2CCC2)nc1 [compound 416, 2-(3-cyano-1-cyclobutyl-5-fluoro-1H-indol-2-yl)-N-(propan-2-yl)pyrimidine-5-sulfonamide]	< 500	195 to 200
Cc1cc2c(cc1F)c(C(N)=O)c(-c1ccc(S(=O)(=O)N[C@@H](C)C(F)(F)F)cn1)n2C1CCCCC1 [compound 706, 1-cyclohexyl-5-fluoro-6-methyl-2-(5-{[(2S)-1,1,1-trifluoropropan-2-yl]sulfamoyl}pyridin-2-yl)-1H-indole-3-carboxamide]	< 500	273 to 279

— patent publication US8735414B2 (priority 2009, dated 2014)
